Type in all cases: functional
For experiment [1], the system named is Mycobacterium tuberculosis. Kind of experiment: Antimycobacterial activity against isoniazid and rifampin-resistant Mycobacterium tuberculosis M6 after 24 hrs by microtiter alamar blue assay. Conditions: M6, 24 h.
The test system of experiment [2] is Mycobacterium tuberculosis. Kind of experiment: Antimycobacterial activity against isoniazid, rifampin, ethambutol, streptomycin, ofloxacin and ciprofloxacin-resistant Mycobacterium tuberculosis M48 after 24 hrs by microtiter alamar blue assay. Conditions: M48, 24 h.
The subject of experiment [3] is Mycobacterium tuberculosis. Kind of experiment: Antimycobacterial activity against isoniazid, rifampin and streptomycin-resistant Mycobacterium tuberculosis M5 after 24 hrs by microtiter alamar blue assay. Conditions: M5, 24 h.
The subject of experiment [4] is Mycobacterium tuberculosis. Kind of experiment: Antimycobacterial activity against isoniazid and rifampin -resistant Mycobacterium tuberculosis M22 after 24 hrs by microtiter alamar blue assay. The conditions noted are these: M22, 24 h.
The test system of experiment [5] is Mycobacterium tuberculosis. The experiment in a line: Antimycobacterial activity against isoniazid, rifampin, ethambutol and streptomycin-resistant Mycobacterium tuberculosis M4 after 24 hrs by microtiter alamar blue assay. The conditions noted are these: M4, 24 h.
Experiment [6] concerns Mycobacterium tuberculosis. The experiment in a line: Antimycobacterial activity against isoniazid and rifampin-resistant Mycobacterium tuberculosis M11 after 24 hrs by microtiter alamar blue assay. Conditions: M11, 24 h.
In experiment [7] the test system is Mycobacterium tuberculosis. Kind of experiment: Antimycobacterial activity against isoniazid, rifampin, ethambutol, streptomycin, ofloxacin and ciprofloxacin-resistant Mycobacterium tuberculosis M53 after 24 hrs by microtiter alamar blue assay. Conditions: M53, 24 h.
In experiment [8] the test system is Mycobacterium tuberculosis. The experiment in a line: Antimycobacterial activity against isoniazid, rifampin and ethambutol-resistant Mycobacterium tuberculosis M16 after 24 hrs by microtiter alamar blue assay. Conditions: M16, 24 h.
The subject of experiment [9] is Mycobacterium tuberculosis. The experiment in a line: Antimycobacterial activity against isoniazid, rifampin, ethambutol and streptomycin-resistant Mycobacterium tuberculosis M8 after 24 hrs by microtiter alamar blue assay. The conditions noted are these: M8, 24 h.
For experiment [10], the system named is Mycobacterium tuberculosis. The experiment in a line: Antimycobacterial activity against isoniazid and rifampin -resistant Mycobacterium tuberculosis M27 after 24 hrs by microtiter alamar blue assay. The conditions noted are these: M27, 24 h.
The test system of experiment [11] is Mycobacterium tuberculosis. The experiment in a line: Antimycobacterial activity against isoniazid, rifampin, ethambutol and streptomycin-resistant Mycobacterium tuberculosis M21 after 24 hrs by microtiter alamar blue assay. The conditions noted are these: M21, 24 h.
Experiment [12] relates to Mycobacterium tuberculosis. Kind of experiment: Antimycobacterial activity against isoniazid, rifampin and streptomycin-resistant Mycobacterium tuberculosis M3 after 24 hrs by microtiter alamar blue assay. The conditions noted are these: M3, 24 h.
The test system of experiment [13] is Mycobacterium tuberculosis. Kind of experiment: Antimycobacterial activity against isoniazid, rifampin, ethambutol, streptomycin, ofloxacin and ciprofloxacin-resistant Mycobacterium tuberculosis M46 after 24 hrs by microtiter alamar blue assay. Conditions: M46, 24 h.

Values after ≈ are worked out from the molar mass of the structure shown.

Consider `CCCCCOc1ccc(/C=C/c2cc(/C=C/c3ccc(O)c(OC)c3)on2)cc1OC`, for which the MIC came out at 0.78 µg/mL (≈ 1.79 µM) in experiment [1]; 3.12 µg/mL (≈ 7.18 µM) in experiment [2]; 1.56 µg/mL (≈ 3.58 µM) in experiment [3]; 0.78 µg/mL (≈ 1.79 µM) in [4]; 1.56 µg/mL (≈ 3.58 µM) in [5]; 3.12 µg/mL (≈ 7.18 µM) in experiment [6]. Further, the MIC worked out at 3.12 µg/mL (≈ 7.18 µM) in [7]; 1.25 µg/mL (≈ 2.87 µM) in experiment [8]; 3.12 µg/mL (≈ 7.18 µM) in experiment [9]; 0.39 µg/mL (≈ 0.895 µM) in [10]; 3.12 µg/mL (≈ 7.18 µM) in experiment [11]; 0.39 µg/mL (≈ 0.895 µM) in [12]. The molecule further came in with an MIC in experiment [13] of 1.56 µg/mL (≈ 3.58 µM).
On to `CCCCCOc1ccc(/C=C/c2cc(/C=C/c3ccc(O)c(OC)c3)no2)cc1OC`, for which the MIC in experiment [1] turned out to be 3.12 µg/mL (≈ 7.18 µM); in experiment [2] it was 3.12 µg/mL (≈ 7.18 µM); in [3] it was 1.56 µg/mL (≈ 3.58 µM); in experiment [4], 6.25 µg/mL (≈ 14.4 µM); in [5], 1.56 µg/mL (≈ 3.58 µM); in [6] it was 6.25 µg/mL (≈ 14.4 µM). In addition, the MIC in experiment [7] was determined as 3.12 µg/mL (≈ 7.18 µM); in experiment [8], 1.56 µg/mL (≈ 3.58 µM); in [9] it was 6.25 µg/mL (≈ 14.4 µM); in experiment [10], 1.56 µg/mL (≈ 3.58 µM); in experiment [11], 6.25 µg/mL (≈ 14.4 µM); in [12], 1.56 µg/mL (≈ 3.58 µM). The same molecule displayed an MIC in experiment [13] of 1.56 µg/mL (≈ 3.58 µM).
Turning to `COc1cc(/C=C/c2cc(/C=C/c3ccc(OC)c(OC)c3)no2)ccc1O`, the MIC in experiment [1] is 0.39 µg/mL (≈ 1.03 µM); in experiment [2] it was 1.56 µg/mL (≈ 4.11 µM); in [3], 3.12 µg/mL (≈ 8.24 µM); in experiment [4], 0.39 µg/mL (≈ 1.03 µM); in experiment [5] it was 1.56 µg/mL (≈ 4.11 µM); in experiment [6] it was 3.12 µg/mL (≈ 8.24 µM). Further, the MIC in experiment [7] is 3.12 µg/mL (≈ 8.24 µM); in experiment [8], 1.56 µg/mL (≈ 4.11 µM); in experiment [9], 3.12 µg/mL (≈ 8.24 µM); in experiment [10] it was 0.195 µg/mL (≈ 0.514 µM); in [11], 3.12 µg/mL (≈ 8.24 µM); in [12] it was 0.195 µg/mL (≈ 0.514 µM). The lowest concentration to inhibit growth in [13] (MIC) was 1.56 µg/mL (≈ 4.11 µM).
For `COc1cc(/C=C/c2cc(/C=C/c3ccc(OC)c(OC)c3)on2)ccc1O`, the MIC in experiment [1] was determined as 1.56 µg/mL (≈ 4.11 µM); in experiment [2], 12.5 µg/mL (≈ 32.9 µM); in experiment [3] it was 12.5 µg/mL (≈ 32.9 µM); in experiment [4], 1.56 µg/mL (≈ 4.11 µM); in experiment [5] it was 6.25 µg/mL (≈ 16.5 µM); in experiment [6], 12.5 µg/mL (≈ 32.9 µM). Moreover, the MIC in experiment [7] was 12.5 µg/mL (≈ 32.9 µM); in experiment [8], 12.5 µg/mL (≈ 32.9 µM); in experiment [9] it was 12.5 µg/mL (≈ 32.9 µM); in [10] it was 0.78 µg/mL (≈ 2.06 µM); in [11] it was 12.5 µg/mL (≈ 32.9 µM); in experiment [12], 0.78 µg/mL (≈ 2.06 µM). This molecule also had an MIC in experiment [13] of 6.25 µg/mL (≈ 16.5 µM).

The record behind these values is ChEMBL document CHEMBL1250481, “Isoxazole analogs of curcuminoids with highly potent multidrug-resistant antimycobacterial activity” (2010).
